Target: T1, hSP-A (Homo sapiens, UniProt Q8IWL1+Q8IWL2)
T1 construct: Human PAP patient, BAL isolated; from tissue; host or cells: bronchoalveolar lavage fluid of a patient with pulmonary alveolar proteinosis
Experiment: Collectin-based binding assay (immobilized hSP-A, WGA-AlexaFluor488 detection)
Settings: for normalized fluorescence of WGA bound to GAG on immobilized hSP-A: absence of calcium (Fig. 4B, C); for binding of immobilized hSP-A to GAG (normalized fluorescence): presence of 5 mM calcium (Fig. 4B, C)
Method: hSP-A was immobilized in a black 96-well plate (655076, Greiner BIO-One, Frickenhausen, Germany) by coating the plate with a specific anti-SP-A antibody (Abcam, abab190087, Cambridge, UK) at a concentration of 0.5 µg/mL in coating buffer [0.1 M NaHCO3 buffer (pH 9.6)] at 4°C overnight. Afterward, the plate was blocked with 100 µL Synblock (Bio-Rad, BUF034B, California) for 2 h at room temperature. Then, hSP-A was added at 14 ng/well and incubated with the antibody for 1 h at room temperature in washing buffer (5 mM Tris, 0.9% NaCl, and 0.05% Tween-20) to immobilize it. After washing with washing buffer, different concentrations of HA or HS ranging from 10 mM to 1 nM were added in either washing buffer without calcium or with 5 mM CaCl2 and incubated with the immobilized protein for 1 h at room temperature. The following washing steps were performed with washing buffer containing no calcium or 5 mM CaCl2. To detect the GAGs bound to the protein, an AlexaFluor488-conjugated wheat germ agglutinin (WGA, W11261, Invitrogen, Massachusetts) was added at 50 µg/mL in washing buffer containing no calcium or 5 mM CaCl2 and incubated it for 30 min at room temperature protected from light. After washing with washing buffer with or without calcium, 100 µL of washing buffer without calcium was added to read the fluorescence of the bound WGA with an excitation filter at 485 nm and an emission filter at 520 nm in a plate reader (FLUOstar Omega, BMG Labtech, Ortenberg, Germany).
The data of the binding inhibition assay were analyzed in GraphPad Prism 9.5.1 using the “normalize” function and fitting to the nonlinear regression dose-response inhibition. The best fitting was achieved using the “[Inhibitor] versus response–variable slope (four parameters)” model. The fluorescence values from the collectin-based binding assay were normalized using the same “normalize” function in GraphPad, and the statistical test used was the “non-parametric Kruskal-Wallis” test. The statistical test used for the DMMB assay for GAG quantification was also the “non-parametric Kruskal-Wallis” test.

T1 sequence (Q8IWL2 21-248): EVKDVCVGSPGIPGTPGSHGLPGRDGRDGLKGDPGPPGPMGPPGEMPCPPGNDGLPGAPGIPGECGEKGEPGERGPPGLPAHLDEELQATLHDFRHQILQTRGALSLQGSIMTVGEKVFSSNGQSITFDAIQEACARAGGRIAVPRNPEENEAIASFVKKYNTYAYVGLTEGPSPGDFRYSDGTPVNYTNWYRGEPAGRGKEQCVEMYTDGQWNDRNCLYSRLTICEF
T1 sequence (Q8IWL1 21-248): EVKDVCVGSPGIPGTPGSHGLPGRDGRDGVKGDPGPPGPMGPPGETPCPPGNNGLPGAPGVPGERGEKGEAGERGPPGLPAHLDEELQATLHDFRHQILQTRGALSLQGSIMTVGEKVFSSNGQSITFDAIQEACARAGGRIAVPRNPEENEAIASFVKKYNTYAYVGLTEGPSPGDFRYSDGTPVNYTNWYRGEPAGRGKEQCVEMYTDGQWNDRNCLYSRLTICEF

Substance: heparan sulfate sodium [HS]
- normalized fluorescence of WGA bound to GAG on immobilized hSP-A: increased fluorescence
- binding of immobilized hSP-A to GAG (normalized fluorescence): able to bind

Substance: hyaluronic acid sodium salt [HA]
- normalized fluorescence of WGA bound to GAG on immobilized hSP-A: no significant increase in fluorescence
- binding of immobilized hSP-A to GAG (normalized fluorescence): able to bind

From article PMC11380953, “Multivalent, calcium-independent binding of surfactant protein A and D to sulfated glycosaminoglycans of the alveolar epithelial glycocalyx” (American Journal of Physiology - Lung Cellular and …, 2024)
